Measurements reported in US8779142B2, “Azabicyclo compound and salt thereof” (Taiho Pharmaceutical Co., Ltd., priority 2009, dated 2014).

Tests used:
[1] = system: SK-BR-3 cells; assay: Measurement of cell growth inhibition (crystal violet staining method); type: cell-based; conditions: Homo sapiens; breast cancer SK-BR-3 cells, 72 hr culture with test substance
[2] = target: human HSP90 alpha protein (HSP90 N-terminal protein, amino acids 2-236) (Homo sapiens (Human), UniProt P07900); assay: Measurement of HSP90-binding activity (AlphaScreen competitive assay, biotin-labeled geldanamycin); conditions: concentration inhibiting binding of biotin-labeled geldanamycin (40 nM) to purified HSP90 to 50% of control; read-out: HSP-binding activity IC50

Compound | IC50 [1] [µM] | IC50 [2] [µM]
CNc1cc(-n2nc(C(C)C)c3c(-n4cnc(-c5cnn(C)c5)c4)ccnc32)ccc1C(N)=O [Example 110, 4-{3-Isopropyl-4-(4-(1-methyl-1H-pyrazol-4-yl)-1H-imidazol-1-yl)-1H-pyrazolo[3,4-b]pyridin-1-yl}-2-(methylamino)benzamide] | 0.49 | 0.31
CC(C)c1nn(-c2ccc(C(N)=O)c(NCC(F)(F)F)c2)c2nccc(-n3cnc(-c4cnn(C)c4)c3)c12 [Example 114, 4-{3-Isopropyl-4-(4-(1-methyl-1H-pyrazol-4-yl)-1H-imidazol-1-yl)-1H-pyrazolo[3,4-b]pyridin-1-yl}-2-(2,2,2-trifluoroethylamino)benzamide] | 0.18 | 0.49
CC(C)c1nn(-c2ccc(C(N)=O)c(NCCN3CCCC3)c2)c2nccc(-n3cnc(-c4cnn(C)c4)c3)c12 [Example 115, 4-{3-Isopropyl-4-(4-(1-methyl-1H-pyrazol-4-yl)-1H-imidazol-1-yl)-1H-pyrazolo[3,4-b]pyridin-1-yl}-2-{2-(pyrrolidin-1-yl)ethylamino}benzamide] | 0.24 | 0.16
Cc1cc(C(N)=O)ncc1-n1nc(C(C)C)c2c(-n3cnc(-c4cnn(C)c4)c3)ccnc21 [Example 118, 5-{3-Isopropyl-4-(4-(1-methyl-1H-pyrazol-4-yl)-1H-imidazol-1-yl)-1H-pyrazolo[3,4-b]pyridin-1-yl}-4-methylpicolinamide] | 0.55 | 0.21
CCNc1cc(C(N)=O)ccc1-n1nc(C(C)C)c2c(-n3cnc(-c4cnn(C)c4)c3)ccnc21 [Example 121, 3-(Ethylamino)-4-{3-isopropyl-4-(4-(1-methyl-1H-pyrazol-4-yl)-1H-imidazol-1-yl)-1H-pyrazolo[3,4-b]pyridin-1-yl}benzamide] | 0.16 | 0.18
CC(C)c1nn(-c2ccc(C(N)=O)cc2C#N)c2nccc(-n3cnc(-c4cnn(C)c4)c3)c12 [Example 124, 3-Cyano-4-{3-isopropyl-4-(4-(1-methyl-1H-pyrazol-4-yl)-1H-imidazol-1-yl)-1H-pyrazolo[3,4-b]pyridin-1-yl}benzamide] | 0.59 | 0.35
CC(C)c1nn(-c2ccc(C(N)=O)cc2CN(C)C)c2nccc(-n3cnc(-c4cnn(C)c4)c3)c12 [Example 126, 3-{(Dimethylamino)methyl}-4-{3-isopropyl-4-(4-(1-methyl-1H-pyrazol-4-yl)-1H-imidazol-1-yl)-1H-pyrazolo[3,4-b]pyridin-1-yl}benzamide] | 1.13 | 0.23
CC(C)c1nn(-c2ccc(C(N)=O)cc2CN2CCOCC2)c2nccc(-n3cnc(-c4cnn(C)c4)c3)c12 [Example 127, 4-{3-Isopropyl-4-(4-(1-methyl-1H-pyrazol-4-yl)-1H-imidazol-1-yl)-1H-pyrazolo[3,4-b]pyridin-1-yl}-3-(morpholinomethyl)benzamide] | 1.56 | 0.23
Cc1c(C(N)=O)ccc(-n2nc(C(C)C)c3c(-n4cnc(-c5cnn(C)c5)c4)ccnc32)c1C [Example 129, 4-{3-Isopropyl-4-(4-(1-methyl-1H-pyrazol-4-yl)-1H-imidazol-1-yl)-1H-pyrazolo[3,4-b]pyridin-1-yl}-2,3-dimethylbenzamide] | 1.13 | 0.29
Cc1c(-n2nc(C(C)C)c3c(-n4cnc(-c5cnn(C)c5)c4)ccnc32)ccc(C(N)=O)c1F [Example 130, 2-Fluoro-4-{3-isopropyl-4-(4-(1-methyl-1H-pyrazol-4-yl)-1H-imidazol-1-yl)-1H-pyrazolo[3,4-b]pyridin-1-yl}-3-methylbenzamide] | 1.89 | 0.69
CCc1c(-n2nc(C(C)C)c3c(-n4cnc(-c5cnn(C)c5)c4)ccnc32)ccc(C(N)=O)c1F [Example 131, 3-Ethyl-2-fluoro-4-{3-isopropyl-4-(4-(1-methyl-1H-pyrazol-4-yl)-1H-imidazol-1-yl)-1H-pyrazolo[3,4-b]pyridin-1-yl}benzamide] | 0.92 | 0.7
CCNc1c(C(N)=O)ccc(-n2nc(C(C)C)c3c(-n4cnc(-c5cnn(C)c5)c4)ccnc32)c1CC [Example 133, 3-Ethyl-2-(ethylamino)-4-{3-isopropyl-4-(4-(1-methyl-1H-pyrazol-4-yl)-1H-imidazol-1-yl)-1H-pyrazolo[3,4-b]pyridin-1-yl}benzamide] | 0.15 | 0.16
Cc1cc(C(N)=O)ccc1-n1nc(C(C)C)c2c(-n3cnc(-c4cccnc4)c3)ccnc21 [Example 135, 4-{3-Isopropyl-4-(4-(pyridin-3-yl)-1H-imidazol-1-yl)-1H-pyrazolo[3,4-b]pyridin-1-yl}-3-methylbenzamide] | 0.69 | 0.4
CCc1cc(C(N)=O)ccc1-n1nc(C(C)C)c2c(-n3cnc(-c4cccnc4)c3)ccnc21 [Example 136, 3-Ethyl-4-{3-isopropyl-4-(4-(pyridin-3-yl)-1H-imidazol-1-yl)-1H-pyrazolo[3,4-b]pyridin-1-yl}benzamide] | 0.27 | 0.13
CC(C)c1cc(C(N)=O)ccc1-n1nc(C(C)C)c2c(-n3cnc(-c4cccnc4)c3)ccnc21 [Example 137, 3-Isopropyl-4-{3-isopropyl-4-(4-(pyridin-3-yl)-1H-imidazol-1-yl)-1H-pyrazolo[3,4-b]pyridin-1-yl}benzamide] | 0.43 | 0.28
CC(C)c1nn(-c2ccc(C(N)=O)cc2C2CC2)c2nccc(-n3cnc(-c4cccnc4)c3)c12 [Example 138, 3-Cyclopropyl-4-{3-isopropyl-4-(4-(pyridin-3-yl)-1H-imidazol-1-yl)-1H-pyrazolo[3,4-b]pyridin-1-yl}benzamide] | 0.53 | 0.19
CCNc1cc(-n2nc(C(C)C)c3c(-n4cnc(-c5cccnc5)c4)ccnc32)ccc1C(N)=O [Example 139, 2-(Ethylamino)-4-{3-isopropyl-4-(4-(pyridin-3-yl)-1H-imidazol-1-yl)-1H-pyrazolo[3,4-b]pyridin-1-yl}benzamide] | 0.28 | 0.57
CC(C)Nc1cc(-n2nc(C(C)C)c3c(-n4cnc(-c5cccnc5)c4)ccnc32)ccc1C(N)=O [Example 140, 4-{3-Isopropyl-4-(4-(pyridin-3-yl)-1H-imidazol-1-yl)-1H-pyrazolo[3,4-b]pyridin-1-yl}-2-(isopropylamino)benzamide] | 0.19 | 0.76

The next molecules have a lower IC50 [1] than those just listed; values first:

IC50 [1] [µM] | IC50 [2] [µM] | Compound
0.08 | 0.18 | CCNc1cc(-n2nc(C(C)C)c3c(-n4cnc(-c5cnn(C)c5)c4)ccnc32)ccc1C(N)=O [Example 109, 2-(Ethylamino)-4-{3-isopropyl-4-(4-(1-methyl-1H-pyrazol-4-yl)-1H-imidazol-1-yl)-1H-pyrazolo[3,4-b]pyridin-1-yl}benzamide]
0.08 | 0.19 | CC(C)Nc1cc(-n2nc(C(C)C)c3c(-n4cnc(-c5cnn(C)c5)c4)ccnc32)ccc1C(N)=O [Example 111, 4-{3-Isopropyl-4-(4-(1-methyl-1H-pyrazol-4-yl)-1H-imidazol-1-yl)-1H-pyrazolo[3,4-b]pyridin-1-yl}-2-(isopropylamino)benzamide]
0.04 | 0.25 | CC(C)c1nn(-c2ccc(C(N)=O)c(NC(C)(C)C)c2)c2nccc(-n3cnc(-c4cnn(C)c4)c3)c12 [Example 112, 2-(Tert-butylamino)-4-{3-isopropyl-4-(4-(1-methyl-1H-pyrazol-4-yl)-1H-imidazol-1-yl)-1H-pyrazolo[3,4-b]pyridin-1-yl}benzamide]
0.07 | 0.26 | CC(C)c1nn(-c2ccc(C(N)=O)c(NCC(F)F)c2)c2nccc(-n3cnc(-c4cnn(C)c4)c3)c12 [Example 113, 2-(2,2-Difluoroethylamino)-4-{3-isopropyl-4-(4-(1-methyl-1H-pyrazol-4-yl)-1H-imidazol-1-yl)-1H-pyrazolo[3,4-b]pyridin-1-yl}benzamide]
0.14 | 0.2 | CC(C)Nc1cc(C(N)=O)ccc1-n1nc(C(C)C)c2c(-n3cnc(-c4cnn(C)c4)c3)ccnc21 [Example 120, 4-{3-Isopropyl-4-(4-(1-methyl-1H-pyrazol-4-yl)-1H-imidazol-1-yl)-1H-pyrazolo[3,4-b]pyridin-1-yl}-3-(isopropylamino)benzamide]
0.13 | 0.18 | CCCNc1cc(C(N)=O)ccc1-n1nc(C(C)C)c2c(-n3cnc(-c4cnn(C)c4)c3)ccnc21 [Example 122, 4-{3-Isopropyl-4-(4-(1-methyl-1H-pyrazol-4-yl)-1H-imidazol-1-yl)-1H-pyrazolo[3,4-b]pyridin-1-yl}-3-(propylamino)benzamide]
0.12 | 0.19 | CC(C)c1nn(-c2ccc(C(N)=O)cc2NCC(F)F)c2nccc(-n3cnc(-c4cnn(C)c4)c3)c12 [Example 123, 3-(2,2-Difluoroethylamino)4-{3-isopropyl-4-(4-(1-methyl-1H-pyrazol-4-yl)-1H-imidazol-1-yl)-1H-pyrazolo[3,4-b]pyridin-1-yl}benzamide]
0.1 | 0.12 | CCNc1c(C(N)=O)ccc(-n2nc(C(C)C)c3c(-n4cnc(-c5cnn(C)c5)c4)ccnc32)c1C [Example 132, 2-(Ethylamino)-4-{3-isopropyl-4-(4-(1-methyl-1H-pyrazol-4-yl)-1H-imidazol-1-yl)-1H-pyrazolo[3,4-b]pyridin-1-yl}-3-methylbenzamide]
0.11 | 0.2 | CCc1c(-n2nc(C(C)C)c3c(-n4cnc(-c5cnn(C)c5)c4)ccnc32)ccc(C(N)=O)c1N [Example 134, 2-Amino-3-ethyl-4-{3-isopropyl-4-(4-(1-methyl-1H-pyrazol-4-yl)-1H-imidazol-1-yl)-1H-pyrazolo[3,4-b]pyridin-1-yl}benzamide]
0.14 | 0.41 | CC(C)c1nn(-c2ccc(C(N)=O)c(NC(C)(C)C)c2)c2nccc(-n3cnc(-c4cccnc4)c3)c12 [Example 141, 2-(Tert-butylamino)-4-{3-isopropyl-4-(4-(pyridin-3-yl)-1H-imidazol-1-yl)-1H-pyrazolo[3,4-b]pyridin-1-yl}benzamide]
